# From US9955689B2, “Method for promoting plant growth” (SUMITOMO CHEMICAL COMPANY, LIMITED, priority 2012, dated 2018)
# Test system: Nicotiana benthamiana
# Assay: Test Example 4: growth promotion under low-temperature stress by hydroponics of Nicotiana benthamiana (10 ppm)
# Type: in vivo
# Conditions: compound at 10 ppm, 7 days at 1.5±1.0° C. low-temperature stress, then 3 days at 22° C., 5 or greater = growth promotion effect, read-out: value of a relative leaf area (Equation (1), area of green leaf)
# Description: Test Example 4. Test for Evaluating Growth Promotion Under Low-Temperature Stress by Hydroponics of Nicotiana benthamiana
# (§1) (Cultivation and Compound Treatment)
# (§2) A DMSO solution, which contained one of the compounds 4, 5, 6, 8, 14, 17, 19, 22, 26, 45, 51, 53, 57, 59, 65, 69, 70, 75, 77, 79, 91, 97, 99, 101, and 110 of the present invention at a concentration of 10,000 ppm, was prepared. The DMSO solution of the compound of the present invention was added at a volume ratio of 1/1,000 to the Murashige⋅Scoog medium of a ½-fold concentration (a medium containing 2.3 g of mixed salts (manufactured by Wako Pure Chemical Industries, Ltd.), 200 mg of Myo-inositol (manufactured by Sigme-Aldrich Co. LLC.), 2 mg of niconitic acid (manufactured by Wako Pure Chemical Industries, Ltd.), 2 mg of pyridoxine hydrochloride (manufactured by Wako Pure Chemical Industries, Ltd.), 20 mg of thiamine hydrochloride (manufactured by Wako Pure Chemical Industries, Ltd.), 20 g of sucrose (manufactured by Wako Pure Chemical Industries, Ltd.), and 1 g of MES (manufactured by DOJINDO LABORATORIES) respectively per 1 L of water and having pH adjusted to 5.8), thereby preparing a medium containing the compound of the present invention at a concentration of 10 ppm.
# (§3) Seeds of Nicotiana benthamiana were seeded in the 5 of the medium and cultured overnight at 22° C. Thereafter, 45 μL of the medium containing the compound of the present invention at a concentration of 10 ppm was added thereto, and the seeds are cultured for 7 days at 22° C., under the conditions of an illuminance of 4,000 lux, and a day length of 16 hours, and the seedling raised from the Nicotiana benthamiana were treated with the compound. Moreover, instead of the above medium a test plot, which was obtained by performing the same treatment by using a medium prepared by adding DMSO to the Murashige⋅Scoog medium of ½-fold concentration at a volume ratio of 1/1,000, was used as a control plot not treated with the compound.
# (§4) (Low-Temperature Stress Treatment)
# (§5) The seedlings of the Nicotiana benthamiana treated with the compound were subjected to low-temperature treatment by being cultured for 7 days at 1.5±1.0° C., under the conditions of an illuminance of 2,000 lux, and a day length of 16 hours.
# (§6) The seedlings of the Nicotiana benthamiana having undergone the low-temperature stress treatment were cultured for 3 days at 22° C., an illuminance of 4,000 lux, and a day length of 16 hours. Thereafter, the area of green leaf was quantified by Scanalyzer HTS (manufactured by LemnaTec GmbH). Moreover, the value of the control plot not treated with the compound that had not yet been subjected to the low-temperature stress treatment was measured in the same manner. A value of a relative leaf area was calculated based on the following equation (1), and if the relative value of leafed area was 5 or greater, the compound was evaluated to have a growth promotion effect. As a result of the evaluation, it was confirmed that when the plant was treated with one of the compounds 4, 5, 6, 8, 14, 17, 19, 22, 26, 45, 51, 53, 57, 59, 65, 67, 69, 70, 75, 77, 79, 91, 97, 99, 101, and 110 of the present invention at 10 ppm, the value of a relative leaf area was 5 or greater, compared to the area of green leaf of the control plot not treated with compound. Accordingly, it was confirmed that the treatment using the compound of the present invention improve a growth promotion effect. Relative leaf area=100*(a green area of a plot treated with the compound of the present invention minus(−) a green area of a plot not treated with the compound of the present invention)/(a green area of a control plot not treated with the compound of the present invention that had not yet been subjected to low-temperature stress treatment minus(−) a green area of a control plot not treated with the compound of the present invention) Equation (1): […]
row,SMILES,relative green leaf area at 10 ppm [%]
1,"O=C(O)c1cc2cc(Cl)ccc2s1 [Present compound 6, 5-chlorobenzo[b]thiophene-2-carboxylic acid]",≥ 5
2,O=C(O)c1cc2c(I)cccc2s1 [Present compound 14],≥ 5
3,"O=C(O)c1cc2c([N+](=O)[O-])cccc2s1 [Present compound 17, 4-nitrobenzo[b]thiophene-2-carboxylic acid]",≥ 5
4,"O=C(O)c1cc2ccc([N+](=O)[O-])cc2s1 [Present compound 19, 6-nitrobenzo[b]thiophene-2-carboxylic acid]",≥ 5
5,Cc1ccc2cc(C(=O)O)sc2c1 [Present compound 22],≥ 5
6,"O=C(O)c1sc2ccccc2c1C(F)(F)F [Present compound 26, 3-(trifluoromethyl)benzo[b]thiophene-2-carboxylic acid]",≥ 5
7,"O=C(O)c1cc2cc(-c3cccnc3)ccc2s1 [Present compound 45, 5-(3-pyridyl)benzo[b]thiophene-2-carboxylic acid]",≥ 5
8,"O=C(O)c1ccc2sc(C(=O)O)cc2c1 [Present compound 53, benzo[b]thiophene-2,5-dicarboxylic acid]",≥ 5
9,"O=C(c1ccccc1)c1ccc2sc(C(=O)O)cc2c1 [Present compound 57, 5-benzoylbenzo[b]thiophene-2-carboxylic acid]",≥ 5
10,"NC(=O)c1ccc2sc(C(=O)O)cc2c1 [Present compound 59, 5-aminocarbonylbenzo[b]thiophene-2-carboxylic acid]",≥ 5
11,"O=C(Nc1ccc2sc(C(=O)O)cc2c1)c1ccccc1 [Present compound 65, 5-(benzoylamino)benzo[b]thiophene-2-carboxylic acid]",≥ 5
12,"CC(=O)Nc1c(C(=O)O)sc2ccccc12 [Present compound 69, 3-acetylamino-benzo[b]-thiophene-2-carboxylic acid]",≥ 5
13,"O=C(O)c1cc2cc(NC(=O)C(F)(F)F)ccc2s1 [Present compound 70, 5-(trifluoroacetylamino)benzo[b]thiophene-2-carboxylic acid]",≥ 5
14,"Cc1ccc(S(=O)(=O)Nc2ccc3sc(C(=O)O)cc3c2)cc1 [Present compound 75, 5-[(4-methylphenylsulfonyl)amino]benzo[b]thiophene-2-carboxylic acid]",≥ 5
15,O=C(O)c1cc2cc(O)ccc2s1 [Present compound 77],≥ 5
16,O=C(O)c1cc2cccc(O)c2s1 [Present compound 79],≥ 5
17,"O=C(O)c1cc2ccc(OCc3ccc(C(F)(F)F)cc3)cc2s1 [Present compound 91, 6-(4-trifluoromethylbenzyloxy)benzo[b]thiophene-2-carboxylic acid]",≥ 5
18,"CSc1ccc2sc(C(=O)O)cc2c1 [Present compound 97, 5-methylthiobenzo[b]thiophene-2-carboxylic acid]",≥ 5
19,"O=C(O)c1cc2cc([S+]([O-])C(F)(F)F)ccc2s1 (stereo not drawn) [Present compound 99, 5-(trifluoromethylsulfinyl)benzo[b]thiophene-2-carboxylic acid]",≥ 5
20,"O=C(O)c1cc2cc(S(F)(F)(F)(F)F)ccc2s1 [Present compound 101, 5-pentafluorosulfanylbenzo[b]thiophene-2-carboxylic acid]",≥ 5
21,"CN(C)c1c(C(=O)O)sc2ccc(C(F)(F)F)cc12 [Present compound 110, 3-(N,N-dimethylamino)-5-trifluoromethylbenzo[b]thiophene-2-carboxylic acid]",≥ 5

# Test system: Nicotiana benthamiana
# Assay: Test Example 6: growth promotion under low-temperature stress by hydroponics of Nicotiana benthamiana (0.1 ppm)
# Type: in vivo
# Conditions: compound at 0.1 ppm, 7 days at 1.5±1.0° C. low-temperature stress, then 3 days at 22° C., 5 or greater = growth promotion effect, read-out: value of a relative leaf area (Equation (1), area of green leaf)
# Description: Test Example 6. Test for Evaluating Growth Promotion Under Low-Temperature Stress by Hydroponics of Nicotiana benthamiana
# as §1
# as §2, with “2, 3, 7, 11 to 13, 20, 23, 24, 30, 38, 39, 41 to 43, 46, 50, 64, 68, 80, 82, 88, 93, 94, 96, 104, 107,” for “4, 5, 6, 8, 14, 17, 19, 22, 26, 45, 51, 53, 57, 59, 65, 69, 70, 75, 77, 79, 91, 97, 99, 101,”, “112” for “110”, “[…]” for “10,000”, “[…]” for “MES”, “0.1” for “10”
# as §3, with “the 5 μL of the” for “the 5 of the”, “concentration of 0.1 ppm was” for “concentration of 10 ppm was”, “at 22° C. under the” for “at 22° C., under the”, “and the seedlings raised from” for “and the seedling raised from”, “to the Murashige′Scoog medium of” for “to the Murashige⋅Scoog medium of”
# as §4, §5
# as §6, with “22° C., under the conditions of an illuminance” for “22° C., an illuminance”, “value of leaf area was” for “value of leafed area was”, “the compounds 2, 3, 7, 11 to 13, 20, 23, 24, 30, 38, 39, 41 to 43, 46, 50, 64, 68, 80, 82, 88, 93, 94, 96, 104, 107, and 112” for “the compounds 4, 5, 6, 8, 14, 17, 19, 22, 26, 45, 51, 53, 57, 59, 65, 67, 69, 70, 75, 77, 79, 91, 97, 99, 101, and 110”, “107, and 112 of the” for “101, and 110 of the”, “invention at 0.1 ppm, the” for “invention at 10 ppm, the”, “treatment minus(−) green area” for “treatment minus(−) a green area”
row,SMILES,relative green leaf area at 0.1 ppm [%]
1,"O=C(O)c1cc2cc(F)ccc2s1 [Present compound 2, 5-fluorobenzo[b]thiophene-2-carboxylic acid]",≥ 5
2,"Cc1cccc2sc(C(=O)O)cc12 [Present compound 20, 4-methylbenzo[b]thiophene-2-carboxylic acid]",≥ 5
3,"Cc1cccc2cc(C(=O)O)sc12 [Present compound 23, 7-methylbenzo[b]thiophene-2-carboxylic acid]",≥ 5
4,"Cc1c(C(=O)O)sc2ccccc12 [Present compound 24, 3-methylbenzo[b]thiophene-2-carboxylic acid]",≥ 5
5,"C=Cc1ccc2cc(C(=O)O)sc2c1 [Present compound 30, 6-vinylbenzo[b]thiophene-2-carboxylic acid]",≥ 5
6,"O=C(O)c1cc2cc(-c3cccc(Cl)c3)ccc2s1 [Present compound 38, 5-(3-chlorophenyl)benzo[b]thiophene-2-carboxylic acid]",≥ 5
